Drawing on ChEMBL document CHEMBL1148124, “New lanostanoids, elfvingic acids A-H, from the fruit body of Elfvingia applanata” (J Nat Prod, 2002), this text covers IC50 for 2 molecules.

≈ marks a conversion by molar mass, not a printed value.

The subject of one assay is Ehrlich. Put plainly: Cytotoxicity against mouse Ehrlich cells after 72 hrs by MTT assay. The format is functional, cell-based. (In general: Tetrazolium dyes change colour on reduction, which living cells bring about.)
Assay [1] can be described thus: Cytotoxicity against human KATO III cells after 72 hrs by MTT assay. It counts as functional, cell-based, KATO III cell.

Regarding `CC(C)c1cccc(=O)c(O)c1` [HINOKITIOL], the IC50 (with Ehrlich; in assay [1]) was 0.6 µg/mL (≈ 3.65 µM) throughout.

On to `C=C(C)[C@@H]1C[C@H]2O[C@@]23C(=CC(=O)[C@]2(C)[C@@H](/C(C)=C\C(O)CC(C)C(=O)O)C[C@@H](O)[C@]23C)[C@@]1(C)CCC(=O)OC` (some centres undefined), for which the IC50 (in the assay with Ehrlich; in assay [1]) was 1.1 µg/mL (≈ 2.02 µM) throughout.

In general, IC50 refers to the midpoint of a concentration-inhibition curve.
